Among the data in patent publication US12492163B2, “9H-fluorene derivatives or their pharmaceutically acceptable salts” (priority 2020, dated 2025) are IC50 and inhibition values, retold here.

Assay type in all cases: biochemical
Assay [1] concerns the target human recombinant beta-secretase (hBACE1) (Homo sapiens (Human), UniProt P56817). Put plainly: FRET assay, inhibition of human recombinant beta-secretase. The following applies: for IC50: read-out: hBACE-1 IC50; for inhibition at 50 µM: 50 μM inhibitor concentration, read-out: hBACE-1 % inh. The method, then: The FRET assay [Vassar, et al.] was used to test activity using 384-well black plates and a microplate reader (EnSpire Multimode; PerkinElmer; Waltham, MA, USA). The test was purchased from Life Technologies Polska Sp. z o.o. (Warsaw, Poland). […] Stock solutions of test compounds were prepared in DMSO and then further diluted with assay buffer (50 mM sodium acetate; pH 4.5) to the appropriate concentrations in the wells. In the first step of the test, 10 μl of the substrate (Rh-[…] quencher, based on the so-called Swedish APP mutation) was mixed with 10 μl of the test compound (or assay buffer; for blank sample). The enzyme reaction was initiated by adding 10 μl of enzyme (hBACE1, 1 U/ml). The reaction mixture was incubated at 25° C. for 60 minutes, then 10 μL of Stop solution (2.5 M sodium acetate) was added. After stopping the reaction, fluorescence was measured at 576 nm. The percentage of enzyme inhibition was calculated from the formula [1−(S60−S0)/(C60−C0)]×100, where S0 and S60 are the fluorescence of the test sample (containing the enzyme, substrate and test compound) at the start of the reaction and after 60 minutes, respectively, whereas C0 and C60 were analogous fluorescence intensities in the blank samples (containing enzyme, substrate and buffer). All test compounds were tested at a concentration of 50 μM in triplicate. […] A BACE1 IV inhibitor (Calbiochem, Merck; Nottingham, UK) [Stachel et al.] was used as a reference compound. […] IC50 values for all test compounds were calculated using non-linear regression (GraphPad Prism 5 [GraphPad Software, San Diego, CA, USA 5.00]) for the percentage of enzyme inhibition against the inhibitor concentration used.

Assay [2] addresses Recombinant human Aβ1-42 peptide (Homo sapiens (Human), UniProt P05067). Put plainly: Thioflavin T test, antiaggregation activity against beta-amyloid. The conditions noted are these: 10 μM test compound, 1.5 μM Aβ1-42; read-out: inh. Aβ aggr. % inh. How it is done:
The thioflavin T test [Levine III] was used for the determinations. Recombinant human Aβ1-42 peptide (HFIP pretreated, Merck Millipore, Darmstadt, Germany) was dissolved in DMSO to form a 75 μM stock solution. The solution was further diluted in HEPES buffer (150 mM HEPES, pH 7.4, 150 mM NaCl) to a concentration of 7.5 μM. Then, the Aβ1-42 solution was added to the test compounds (black 96-well plates were used) and diluted with thioflavin T solution (10 μM final concentration). The final mixture contained 1.5 μM Aβ1-42, 10 μM test compound, and 3% of DMSO. Fluorescence was measured every 300 s (excitation wavelength was 440 nm, emission wavelength was 490 nm) with continuous mixing between measurements. A multifunction microplate reader (Synergy H4; BioTek Instruments, Inc., Winooski, VT, USA) was used to measure the fluorescence. Fluorescence started increasing after approximately 4 hours, plateaued after 20 hours and remained virtually unchanged for the next 28 hours of incubation. The plateau-phase fluorescence intensities (in the presence and absence of test compounds) were averaged and the mean fluorescence values for the respective wells at t=0 h were subtracted from them. […] IC50 values were calculated using non-linear regression (GraphPad Prism 5 [GraphPad Software, San Diego, CA, USA 5.00]) for the percentage of aggregation inhibition against the inhibitor concentration used.

For assay [3], the target named is horse plasma butyrylcholinesterase (eqBuChE) (Equus caballus (Horse), UniProt P81908). Put plainly: Ellman's test, inhibition of horse plasma butyrylcholinesterase. How it is done: (§1) The spectrophotometric Ellman's test [Ellman et al.] modified for assays in 96-well plates was used to test the activity. Reagents: 5,5′-dithiobis-(2-nitrobenzoic acid) (DTNB), eqBuChE and butyrylthiocholine iodide (BTC) were purchased from Sigma-Aldrich (Steinheim, Germany). hBuChE was from Vivonics (Bedford, MA, USA). The enzymes were prepared by dissolving in demineralized water to a concentration of 0.384 U/ml. Stock solutions of test compounds were prepared by dissolving in DMSO to a concentration of 0.0034 M. They were then diluted with water to obtain the appropriate concentrations in the wells. In the first step of the test, 25 μl of test compound (or DMSO/water mixture at the appropriate ratio for blank samples) was incubated in 0.1 M phosphate buffer (200 μl, pH=8.0) with DTNB (20 μl; 0.0025M) and with the appropriate enzyme (20 μl; eqBuChE or hBuChE) at 25° C. (animal enzyme) or 36° C. (human enzyme). After a 5 minutes incubation period, 20 μl of BTC solution (0.00375 M) was added. After another 5 minutes, the changes in absorbance of the solutions were measured at 412 nm using a multifunctional microplate reader (EnSpire Multimode; PerkinElmer; Waltham, MA, USA). All compounds were tested at a screening concentration of 10 μM (eqBuChE) or 1 μM (hBuChE). The percentage of enzyme inhibition was calculated from the equation 100-(S/B)×100, where S and B were the enzymatic activity in the test sample well and in the well without sample, respectively. […] All reactions were performed in triplicate. IC50 values were calculated using non-linear regression (GraphPad Prism 5 [GraphPad Software, San Diego, CA, USA 5.00]) for the percentage of enzyme inhibition against the inhibitor concentration used. Tacrine and donepezil were used as reference compounds.

The target of assay [4] is human plasma butyrylcholinesterase (hBuChE) (Homo sapiens (Human), UniProt P06276). Put plainly: Ellman's test, inhibition of human plasma butyrylcholinesterase. The conditions noted are these: for inhibition at 1 µM: 1 μM inhibitor concentration, read-out: hBuChE % inh. How it is done:
as §1

Sequence of human plasma butyrylcholinesterase (hBuChE) (P06276 29-602): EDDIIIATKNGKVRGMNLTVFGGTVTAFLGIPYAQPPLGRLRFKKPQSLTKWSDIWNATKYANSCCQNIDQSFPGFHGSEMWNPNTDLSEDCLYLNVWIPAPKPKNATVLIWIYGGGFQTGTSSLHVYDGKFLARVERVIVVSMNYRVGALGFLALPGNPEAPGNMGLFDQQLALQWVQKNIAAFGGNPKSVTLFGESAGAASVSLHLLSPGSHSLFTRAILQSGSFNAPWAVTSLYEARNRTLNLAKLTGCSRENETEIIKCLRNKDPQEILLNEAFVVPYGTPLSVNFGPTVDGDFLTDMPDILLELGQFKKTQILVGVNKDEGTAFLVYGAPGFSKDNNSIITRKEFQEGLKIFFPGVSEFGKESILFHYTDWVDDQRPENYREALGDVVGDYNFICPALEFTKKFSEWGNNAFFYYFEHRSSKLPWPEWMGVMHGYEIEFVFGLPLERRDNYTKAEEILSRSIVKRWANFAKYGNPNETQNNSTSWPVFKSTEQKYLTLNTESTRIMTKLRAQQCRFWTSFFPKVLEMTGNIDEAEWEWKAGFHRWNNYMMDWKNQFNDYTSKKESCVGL
Sequence of human recombinant beta-secretase (hBACE1) (P56817 46-501): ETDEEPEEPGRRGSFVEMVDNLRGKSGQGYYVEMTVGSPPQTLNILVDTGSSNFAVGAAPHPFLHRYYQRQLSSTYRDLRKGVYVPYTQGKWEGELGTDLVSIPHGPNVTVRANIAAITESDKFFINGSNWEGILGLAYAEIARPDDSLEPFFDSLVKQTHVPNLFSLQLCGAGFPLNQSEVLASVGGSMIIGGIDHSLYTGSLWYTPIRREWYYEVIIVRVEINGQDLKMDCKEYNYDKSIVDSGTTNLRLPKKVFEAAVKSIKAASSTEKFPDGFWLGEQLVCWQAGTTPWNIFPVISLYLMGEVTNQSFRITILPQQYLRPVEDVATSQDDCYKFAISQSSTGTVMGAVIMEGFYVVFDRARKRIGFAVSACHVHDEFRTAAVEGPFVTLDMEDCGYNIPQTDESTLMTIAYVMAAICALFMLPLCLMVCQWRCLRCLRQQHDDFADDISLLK
Sequence of horse plasma butyrylcholinesterase (eqBuChE) (P81908 whole entry): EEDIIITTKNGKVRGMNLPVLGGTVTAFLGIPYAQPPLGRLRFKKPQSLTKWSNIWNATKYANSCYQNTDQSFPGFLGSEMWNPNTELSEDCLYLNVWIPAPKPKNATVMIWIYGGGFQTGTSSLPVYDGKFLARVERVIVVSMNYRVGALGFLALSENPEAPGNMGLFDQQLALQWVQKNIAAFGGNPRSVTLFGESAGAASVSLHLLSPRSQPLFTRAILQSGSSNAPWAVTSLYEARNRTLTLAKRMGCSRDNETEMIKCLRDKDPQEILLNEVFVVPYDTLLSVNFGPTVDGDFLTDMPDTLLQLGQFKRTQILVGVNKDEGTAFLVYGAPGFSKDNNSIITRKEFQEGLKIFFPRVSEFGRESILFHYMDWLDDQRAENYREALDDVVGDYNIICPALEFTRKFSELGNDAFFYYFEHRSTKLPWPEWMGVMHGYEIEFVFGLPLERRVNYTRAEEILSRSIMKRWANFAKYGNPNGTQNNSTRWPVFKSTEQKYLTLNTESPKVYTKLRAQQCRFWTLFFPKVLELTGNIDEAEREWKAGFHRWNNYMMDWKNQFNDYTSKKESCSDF
Sequence of Recombinant human Aβ1-42 peptide (P05067 672-713): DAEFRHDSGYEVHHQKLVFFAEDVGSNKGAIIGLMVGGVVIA

What is called IC50 is the point on the concentration scale where inhibition reaches its midpoint. Take `O[C@@H](CNCc1ccccc1)[C@H](Cc1ccccc1)NC1c2ccccc2-c2ccccc21` [Compound 2, (2S,3S)-3-((9H-fluoren-9-yl)amino)-1-(benzylamino)-4-phenylbutan-2-ol]: the IC50 in assay [1] came to 4.82 µM; in assay [3], 0.333 µM; in assay [4] it was 0.571 µM. Moreover, in assay [2], the inhibition at 10 µM was determined as 86.3%.

As to `CC(C)c1cccc(CNC[C@@H](O)[C@H](Cc2ccccc2)NC2c3ccccc3-c3ccccc32)c1` [Compound 4, (2R,3S)-3-((9H-fluoren-9-yl)amino)-1-((3-isopropylbenzyl)amino)-4-phenylbutan-2-ol], the IC50 in assay [1] turned out to be 3.92 µM; in assay [3], 0.514 µM; in assay [4] it was 0.489 µM. Also, the inhibition at 10 µM in assay [2] stood at 83.7%.

As for `CC(C)(C)c1ccc(CNC[C@H](O)[C@H](Cc2ccccc2)NC2c3ccccc3-c3ccccc32)cc1` [Compound 5, (2S,3S)-3-((9H-fluoren-9-yl)amino)-1-((4-(tert-butyl)benzyl)amino)-4-phenylbutan-2-ol], the IC50 in assay [1] was determined as 6.64 µM; in assay [3], 0.803 µM. Also, in assay [2], the inhibition at 10 µM is 75.6%. Further, in assay [4], the inhibition at 1 µM was 62%.

Take `O[C@H](CNCc1cccc(C(F)(F)F)c1)[C@H](Cc1ccccc1)NC1c2ccccc2-c2ccccc21` [Compound 8, (2R,3S)-3-((9H-fluoren-9-yl)amino)-4-phenyl-1-((3-(trifluoromethyl)benzyl)amino)-butan-2-ol]: the results for the IC50 in assay [1], in assay [3] and in assay [4] were 3.19 µM, 0.751 µM and 0.721 µM, respectively. Also, the inhibition at 10 µM in assay [2] came to 72.4%.

As to `C[C@H](NC[C@@H](O)[C@H](Cc1ccccc1)NC1c2ccccc2-c2ccccc21)c1ccccc1` [Compound 9, (2R,3S)-3-((9H-fluoren-9-yl)amino)-4-phenyl-1-(((S)-1-phenylethyl)amino)butan-2-ol], the half-inhibitory concentration (IC50) was 20.1 µM in assay [1], 0.264 µM in assay [3] and 0.812 µM in assay [4]. Further, the inhibition at 10 µM in assay [2] was determined as 63%.

On to `CC(C)(NC[C@@H](O)[C@H](Cc1ccccc1)NC1c2ccccc2-c2ccccc21)c1ccccc1` [Compound 10, (2R,3S)-3-((9H-fluoren-9-yl)amino)-4-phenyl-1-((2-phenylpropan-2-yl)amino)butan-2-ol], for which the IC50 in assay [1] was found to be 17.2 µM; in assay [3], 0.345 µM; in assay [4] it was 1.17 µM. In assay [2], the inhibition at 10 µM was 90.8%.

For the compound `CC(C)(C)NC[C@H](O)[C@H](Cc1ccccc1)NC1c2ccccc2-c2ccccc21` [Compound 12, (2S,3S)-3-((9H-fluoren-9-yl)amino)-1-(tert-butylamino)-4-phenylbutan-2-ol], in assay [1], the inhibition at 50 µM came to 48.7%. In addition, the inhibition at 10 µM in assay [2] was 67.2%. Also, the IC50 in assay [3] was 4.84 µM. Moreover, the inhibition at 1 µM in assay [4] amounted to 58.8%.

On to `CC(C)(C)CNC[C@@H](O)[C@H](Cc1ccccc1)NC1c2ccccc2-c2ccccc21` [Compound 13, (2R,3S)-3-((9H-fluoren-9-yl)amino)-1-(neopentylamino)-4-phenylbutan-2-ol], for which the IC50 came out at 8.59 µM in assay [1] and 1.18 µM in assay [3]. Further, in assay [2], the inhibition at 10 µM is 80.2%. Besides, in assay [4], the inhibition at 1 µM came out at 61.3%.

As for `O[C@H](CNCC(F)(F)F)[C@H](Cc1ccccc1)NC1c2ccccc2-c2ccccc21` [Compound 14, (2R,3S)-3-((9H-fluoren-9-yl)amino)-4-phenyl-1-((2,2,2-trifluoroethyl)amino)butan-2-ol], the inhibition at 50 µM in assay [1] came out at 36.8%. For the same compound, the inhibition at 10 µM in assay [2] came to 82.5%. Half-maximal inhibition in assay [3] (IC50) required 1.08 µM. The inhibition at 1 µM in assay [4] was 67.9%.

Regarding `O[C@@H](CNCC1CC1)[C@H](Cc1ccccc1)NC1c2ccccc2-c2ccccc21` [Compound 15, (2S,3S)-3-((9H-fluoren-9-yl)amino)-1-((cyclopropylmethyl)amino)-4-phenylbutan-2-ol], the half-maximal inhibitory concentration (IC50) in assay [3] stood at 0.975 µM; in assay [4], 1.03 µM.

Take `CC(C)(C)c1ccc(CNC[C@H](O)[C@H](Cc2ccccc2)NC(=O)C2c3ccccc3-c3ccccc32)cc1` [Compound 18, N-((2S,3S)-4-((4-(tert-butyl)benzyl)amino)-3-hydroxy-1-phenylbutan-2-yl)-9H-fluorene-9-carboxamide]: the IC50 was 1.12 µM in assay [1] and 1.22 µM in assay [3]. Besides, the inhibition at 10 µM in assay [2] was determined as 63.5%. For the same compound, in assay [4], the inhibition at 1 µM is 55.6%.

As to `O=C(CC1c2ccccc2-c2ccccc21)N[C@@H](Cc1ccccc1)[C@H](O)CNCc1cccc(C(F)(F)F)c1` [Compound 21, 2-(9H-fluoren-9-yl)-N-((2S,3R)-3-hydroxy-1-phenyl-4-((3-(trifluoromethyl)benzyl)-amino)butan-2-yl)acetamide], the IC50 came out at 2.12 µM in assay [1] and 2.02 µM in assay [3]. Moreover, the inhibition at 10 µM in assay [2] was less than 10%. Also, in assay [4], the inhibition at 1 µM amounted to 54.3%.

Turning to `CC(C)(NC[C@@H](O)[C@H](Cc1ccccc1)NC(=O)C1c2ccccc2-c2ccccc21)c1ccccc1` [Compound 24, N-((2S,3R)-3-hydroxy-1-phenyl-4-((2-phenylpropan-2-yl)amino)butan-2-yl)-9H-fluorene-9-carboxamide], the IC50 was determined as 5.15 µM in assay [1] and 2.84 µM in assay [3]. In assay [2], the inhibition at 10 µM is 61%. Further, the inhibition at 1 µM in assay [4] was found to be 21.4%.

Consider `CC(C)(NC[C@@H](O)[C@H](Cc1ccccc1)NC(=O)CC1c2ccccc2-c2ccccc21)c1ccccc1` [Compound 25, 2-(9H-fluoren-9-yl)-N-((2S,3R)-3-hydroxy-1-phenyl-4-((2-phenylpropan-2-yl)amino)-butan-2-yl)acetamide], for which the IC50 in assay [1] is 4.96 µM; in assay [3] it was 1.27 µM. The inhibition at 10 µM in assay [2] is 63%. Further, the inhibition at 1 µM in assay [4] was 71.7%.

Consider `CC(C)(C)CNC[C@@H](O)[C@H](Cc1ccccc1)NC(=O)C1c2ccccc2-c2ccccc21` [Compound 26, N-((2S,3R)-3-hydroxy-4-(neopentylamino)-1-phenylbutan-2-yl)-9H-fluorene-9-carboxamide], for which the inhibition at 50 µM in assay [1] came to 54.5%. Besides, the inhibition at 10 µM in assay [2] was determined as 39.5%. This compound also gave an IC50 in assay [3] of 1.09 µM. Also, in assay [4], the inhibition at 1 µM worked out at 61.1%.
